Laboratory results published in the Kinase Knowledgebase extract (Sharma et al. 2016).

The compounds below were run against PIK3CG (UniProt P48736) (assay: Inhibition of PIK3CG Kinase Activity).
PIK3CG, sequence (P48736 whole entry, looked up): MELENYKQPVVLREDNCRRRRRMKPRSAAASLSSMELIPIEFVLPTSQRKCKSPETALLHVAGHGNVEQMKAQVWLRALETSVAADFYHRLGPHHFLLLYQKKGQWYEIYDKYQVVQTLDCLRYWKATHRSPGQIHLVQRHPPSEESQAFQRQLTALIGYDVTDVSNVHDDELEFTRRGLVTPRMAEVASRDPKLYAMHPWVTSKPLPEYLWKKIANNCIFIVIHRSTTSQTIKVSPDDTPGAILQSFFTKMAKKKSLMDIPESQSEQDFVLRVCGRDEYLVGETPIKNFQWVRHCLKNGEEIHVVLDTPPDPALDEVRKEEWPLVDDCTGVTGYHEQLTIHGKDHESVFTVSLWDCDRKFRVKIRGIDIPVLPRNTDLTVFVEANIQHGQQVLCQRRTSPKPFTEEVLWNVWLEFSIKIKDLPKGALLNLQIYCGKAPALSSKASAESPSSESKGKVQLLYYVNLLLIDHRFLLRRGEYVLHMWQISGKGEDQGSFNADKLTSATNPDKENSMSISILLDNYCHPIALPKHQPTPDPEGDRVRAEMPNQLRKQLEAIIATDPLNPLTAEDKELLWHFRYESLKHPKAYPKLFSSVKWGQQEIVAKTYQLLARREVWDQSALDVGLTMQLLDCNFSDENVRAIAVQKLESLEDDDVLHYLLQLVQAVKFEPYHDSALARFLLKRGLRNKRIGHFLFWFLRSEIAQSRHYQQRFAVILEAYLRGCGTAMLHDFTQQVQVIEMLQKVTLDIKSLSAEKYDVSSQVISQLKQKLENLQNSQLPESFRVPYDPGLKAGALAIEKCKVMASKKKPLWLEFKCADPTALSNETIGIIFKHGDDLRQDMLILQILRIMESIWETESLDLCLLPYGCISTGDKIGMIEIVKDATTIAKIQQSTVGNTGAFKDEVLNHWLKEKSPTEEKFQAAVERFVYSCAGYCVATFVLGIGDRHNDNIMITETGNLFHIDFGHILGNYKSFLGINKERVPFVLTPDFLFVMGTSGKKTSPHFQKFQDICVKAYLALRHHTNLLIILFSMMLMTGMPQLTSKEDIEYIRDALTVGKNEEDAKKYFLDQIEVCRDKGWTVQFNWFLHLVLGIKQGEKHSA

Row | Compound | IC50
1 | CN1CCN(Cc2ccccc2C(=O)N2CCOc3ccc(/C=C4\SC(=S)NC4=O)cc32)CC1 | 115 nM
2 | O=C1NC(=S)S/C1=C\c1ccc2c(c1)N(C(=O)Oc1ccccc1)CCCO2 | 424 nM
3 | O=C1NC(=S)S/C1=C\c1ccc2c(c1)N(C(=O)/C=C/c1cccc(C(F)(F)F)c1)CCCO2 | 4010 nM
4 | CC1(C)C2CCC1(CS(=O)(=O)N1CCOc3ccc(/C=C4\SC(=S)NC4=O)cc31)CC2 | 330 nM
5 | O=C1NC(=S)S/C1=C\c1ccc2c(c1)N(C(=O)C1CCCC1)CCCO2 | 1000 nM
6 | COc1cc(NC(=O)N2CCOc3ccc(/C=C4\SC(=S)NC4=O)cc32)cc(OC)c1 | 14 nM
7 | COc1cc(NC(=O)N2CCCOc3ccc(/C=C4\SC(=S)NC4=O)cc32)cc(OC)c1 | 1320 nM
8 | CCCCCCc1ccc(C(=O)N2CCCOc3ccc(/C=C4\SC(=S)NC4=O)cc32)cc1 | 4200 nM
9 | O=C1NC(=S)S/C1=C\c1ccc2c(c1)N(C(=O)/C=C/c1ccccc1)CCCO2 | 1520 nM
10 | CC(=O)Oc1ccc(OC(=O)N2CCCOc3ccc(/C=C4\SC(=S)NC4=O)cc32)cc1 | 640 nM
11 | O=C1NC(=S)S/C1=C\c1ccc2c(c1)N(C(=O)COCc1ccccc1)CCCO2 | 1650 nM
12 | Cc1oc(C(C)(C)C)cc1C(=O)N1CCCOc2ccc(/C=C3\SC(=S)NC3=O)cc21 | 4600 nM
13 | O=C1NC(=S)S/C1=C\c1ccc2c(c1)N(C(=O)c1ccc(Cl)c(Cl)c1)CCCO2 | 1380 nM
14 | O=C1NC(=S)S/C1=C\c1ccc2c(c1)N(C(=O)C1CC1)CCCO2 | 115 nM
15 | O=C1NC(=S)S/C1=C\c1ccc2c(c1)N(C(=O)c1ccc3c(c1)C(=O)c1ccccc1C3=O)CCCO2 | 4990 nM
16 | O=C1NC(=S)S/C1=C\c1ccc2c(c1)N(C(=O)c1ccc3occc3c1)CCCO2 | 1530 nM
17 | Cc1cc(C)cc(CN2CCOc3ccc(/C=C4\SC(=S)NC4=O)cc32)c1 | 650 nM
18 | Cc1ccc(OC(=O)N2CCCOc3ccc(/C=C4\SC(=S)NC4=O)cc32)cc1 | 704 nM
19 | Cc1ccc(NC(=O)N2CCCOc3ccc(/C=C4\SC(=S)NC4=O)cc32)cc1 | 3500 nM
20 | O=C1NC(=S)S/C1=C\c1ccc2c(c1)N(C(=O)Cc1cccs1)CCCO2 | 1140 nM
21 | N#Cc1ccc(C(=O)N2CCCOc3ccc(/C=C4\SC(=S)NC4=O)cc32)cc1 | 2610 nM
22 | O=C1NC(=S)S/C1=C\c1ccc2c(c1)N(C(=O)c1ccco1)CCO2 | 65 nM
